Read-outs that look alike come from different tables or passages of the source.
Test system: patients with HFrEF following hemodynamic stabilization after an episode of ADHF
Details: for Patients with ≥1 AE: full analysis set
[1] = not naive to ACEI/ARB (N = 665)
[2] = post-discharge, N = 496, 10-week treatment epoch
[3] = post-discharge, N = 496, 10-week treatment period
[4] = pre-discharge, N = 497, 10-week treatment epoch
[5] = pre-discharge, N = 497, 10-week treatment period
[6] = previous diagnosis of HFrEF (N = 705)
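Also: adverse events recorded in patients during the 10-week treatment phase following randomization.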

Q: With CCCCC(=O)N(Cc1ccc(-c2ccccc2-c2nn[n-]n2)cc1)[C@H](C(=O)[O-])C(C)C.CCOC(=O)[C@H](C)C[C@@H](Cc1ccc(-c2ccccc2)cc1)NC(=O)CCC(=O)[O-].[Na+].[Na+].[Na+] [LCZ696, trisodium [3((1S,3R)-1-biphenyl-4-ylmethyl-3-ethoxycarbonyl-1-butylcarbamoyl) propionate-(S)-3′-methyl-2′-(pentanoyl{2″-(tetrazol-5-ylate)biphenyl-4′-ylmethyl}amino)butyrate]hemipentahydrate] as the compound, how does the “Deaths attributed to the study treatment by the investigator” value (both arms) read?
A: None

Q: What about the “SAE hyperkalemia, patients” value (both treatment groups) of the same compound?
A: < 1%

Q: And the “SAE hypotension, patients” value (both treatment groups)?
A: < 1%

Q: What about the “AE of interest: Blood creatinine increased” value (de novo HFrEF (N = 286)) of the same compound?
A: 3 (1.0) n (%)

Q: And the “AE of interest: Cardiac failure” value (de novo HFrEF (N = 286))?
A: 13 (4.5) n (%)

Q: What about the “AE of interest: Hyperkalemia” value (de novo HFrEF (N = 286)) of the same compound?
A: 24 (8.4) n (%)

Q: What about the “AE of interest: Hypotension” value (de novo HFrEF (N = 286)) of the same compound?
A: 26 (9.1) n (%)

Q: And the “AE of interest: Renal failure” value (de novo HFrEF (N = 286))?
A: 3 (1.0) n (%)

Q: And the “AE of interest: Renal impairment” value (de novo HFrEF (N = 286))?
A: 8 (2.8) n (%)

Q: And the “At least one AE” value (de novo HFrEF (N = 286))?
A: 178 (62.2) n (%)

Q: And the “At least one serious AE” value (de novo HFrEF (N = 286))?
A: 33 (11.5) n (%)

Q: And the Death (de novo HFrEF (N = 286))?
A: 1 (0.3) n (%)

Q: And the “Treatment interruption due to AE” value (de novo HFrEF (N = 286))?
A: 22 (7.7) n (%)

Q: What about the “Rate of permanent discontinuation of study drug due to AEs” value (initiated post-discharge (text, secondary endpoint)) of the same compound?
A: 3.5%

Q: What about the “Rate of permanent discontinuation of study drug due to AEs” value (initiated pre-discharge (text, secondary endpoint)) of the same compound?
A: 4.5%

Q: And the “AE of interest: Blood creatinine increased” value (naive to ACEI/ARB (N = 326))?
A: 6 (1.8) n (%)

Q: What about the “AE of interest: Cardiac failure” value (naive to ACEI/ARB (N = 326)) of the same compound?
A: 17 (5.2) n (%)

Q: What about the “AE of interest: Hyperkalemia” value (naive to ACEI/ARB (N = 326)) of the same compound?
A: 20 (7.1) n (%)

Q: And the “AE of interest: Hypotension” value (naive to ACEI/ARB (N = 326))?
A: 29 (8.9) n (%)

Q: What about the “AE of interest: Renal failure” value (naive to ACEI/ARB (N = 326)) of the same compound?
A: 6 (1.8) n (%)

Q: What about the “AE of interest: Renal impairment” value (naive to ACEI/ARB (N = 326)) of the same compound?
A: 8 (2.5) n (%)

Q: And the “At least one AE” value (naive to ACEI/ARB (N = 326))?
A: 210 (64.4) n (%)

Q: And the “At least one serious AE” value (naive to ACEI/ARB (N = 326))?
A: 47 (14.4) n (%)

Q: And the “Treatment interruption due to AE” value (naive to ACEI/ARB (N = 326))?
A: 32 (9.8) n (%)

Q: And the “AE of interest: Blood creatinine increased” value [1]?
A: 23 (3.5) n (%)

Q: What about the “AE of interest: Cardiac failure” value [1] of the same compound?
A: 54 (8.1) n (%)

Q: What about the “AE of interest: Hyperkalemia” value [1] of the same compound?
A: 86 (12.9) n (%)

Q: What about the “AE of interest: Hypotension” value [1] of the same compound?
A: 79 (11.9) n (%)

Q: And the “AE of interest: Renal failure” value [1]?
A: 13 (2.0) n (%)

Q: And the “AE of interest: Renal impairment” value [1]?
A: 32 (4.8) n (%)

Q: What about the “At least one AE” value [1] of the same compound?
A: 446 (67.1) n (%)

Q: And the “At least one serious AE” value [1]?
A: 116 (17.4) n (%)

Q: And the “Treatment interruption due to AE” value [1]?
A: 77 (11.8) n (%)

Q: What about the “Mortality, patients who died” value (post-discharge arm) of the same compound?
A: 2.0%

Q: And the “AE cardiac failure, patients” value (post-discharge group)?
A: 8.5%

Q: What about the “AE dizziness, patients” value (post-discharge group) of the same compound?
A: 4.2%

Q: What about the “AE hyperkalemia, patients” value (post-discharge group) of the same compound?
A: 11.3%

Q: What about the “AE hypotension, patients” value (post-discharge group) of the same compound?
A: 9.1%

Q: And the “Patients with SAEs” value (post-discharge group)?
A: 17.7%

Q: And the “SAE acute kidney injury, patients” value (post-discharge group)?
A: 1.4%

Q: What about the “SAE cardiac failure, patients” value (post-discharge group) of the same compound?
A: 7.7%

Q: What about the “Permanent treatment discontinuation due to SAEs” value (post-discharge, N = 496) of the same compound?
A: 13 (2.6) n (%)

Q: What about the “Permanent treatment discontinuation due to non-SAEs” value (post-discharge, N = 496) of the same compound?
A: 7 (1.4) n (%)

Q: What about the “Serious adverse event: Acute kidney injury” value (post-discharge, N = 496) of the same compound?
A: 7 (1.4) n (%)

Q: And the “Serious adverse event: Atrial fibrillation” value (post-discharge, N = 496)?
A: 4 (0.8) n (%)

Q: What about the “Serious adverse event: Cardiac failure(acute/chronic)” value (post-discharge, N = 496) of the same compound?
A: 38 (7.7) n (%)

Q: And the “Serious adverse event: Chronic obstructive pulmonary disease” value (post-discharge, N = 496)?
A: 4 (0.8) n (%)

Q: What about the “Serious adverse event: Hyperkalemia” value (post-discharge, N = 496) of the same compound?
A: 2 (0.4) n (%)

Q: What about the “Serious adverse event: Hypotension” value (post-discharge, N = 496) of the same compound?
A: 2 (0.4) n (%)

Q: And the “Serious adverse event: Non-cardiac chest pain” value (post-discharge, N = 496)?
A: 3 (0.6) n (%)

Q: What about the “Serious adverse event: Pneumonia” value (post-discharge, N = 496) of the same compound?
A: 3 (0.6) n (%)

Q: And the “Serious adverse event: Pulmonary edema” value (post-discharge, N = 496)?
A: 2 (0.4) n (%)

Q: And the “Serious adverse event: Renal failure” value (post-discharge, N = 496)?
A: 1 (0.2) n (%)

Q: What about the “Serious adverse event: Respiratory tract infection” value (post-discharge, N = 496) of the same compound?
A: 3 (0.6) n (%)

Q: And the “Serious adverse event: Ventricular tachycardia” value (post-discharge, N = 496)?
A: 0 (0.0) n (%)

Q: And the “Temporary treatment interruption due to AEs” value (post-discharge, N = 496)?
A: 55 (11.1) n (%)

Q: And the “Temporary treatment interruption due to SAEs” value (post-discharge, N = 496)?
A: 18 (3.6) n (%)

Q: And the “Temporary treatment interruption due to non-SAEs” value (post-discharge, N = 496)?
A: 42 (8.5) n (%)

Q: And the “Adverse event: Cardiac failure” value [2]?
A: 42 (8.5) n (%)

Q: What about the “Adverse event: Diarrhea” value [2] of the same compound?
A: 23 (4.6) n (%)

Q: And the “Adverse event: Dizziness” value [2]?
A: 21 (4.2) n (%)

Q: What about the “Adverse event: Hyperkalemia” value [2] of the same compound?
A: 56 (11.3) n (%)

Q: What about the “Adverse event: Hypotension” value [2] of the same compound?
A: 45 (9.1) n (%)

Q: What about the “Adverse event: Peripheral edema” value [2] of the same compound?
A: 24 (4.8) n (%)

Q: And the “Adverse event: Renal impairment” value [2]?
A: 15 (3.0) n (%)

Q: What about the “Adverse event: Urinary tract infection” value [2] of the same compound?
A: 15 (3.0) n (%)

Q: What about the Deaths [3] of the same compound?
A: 10 (2.0) n (%)

Q: What about the “Patients with ≥ SAE / at least one SAE” value [3] of the same compound?
A: 88 (17.7) n (%)

Q: And the “Patients with ≥1 AE” value [3]?
A: 323 (65.1) n (%)

Q: What about the “Permanent treatment discontinuation due to AEs” value (post-discharge, N = 496, full analysis set) of the same compound?
A: 20 (4.0) n (%)

Q: What about the “RRR, permanent discontinuation due to AEs” value (pre- vs post-discharge) of the same compound?
A: 1.287

Q: And the “Mortality, patients who died” value (pre-discharge arm)?
A: 2.6%

Q: And the “AE cardiac failure, patients” value (pre-discharge group)?
A: 6.8%

Q: And the “AE dizziness, patients” value (pre-discharge group)?
A: 5.6%

Q: What about the “AE hyperkalemia, patients” value (pre-discharge group) of the same compound?
A: 11.1%

Q: And the “AE hypotension, patients” value (pre-discharge group)?
A: 12.3%

Q: And the “Patients with SAEs” value (pre-discharge group)?
A: 18.9%

Q: What about the “SAE acute kidney injury, patients” value (pre-discharge group) of the same compound?
A: 1.2%

Q: And the “SAE cardiac failure, patients” value (pre-discharge group)?
A: 7.0%

Q: What about the “Permanent treatment discontinuation due to SAEs” value (pre-discharge, N = 497) of the same compound?
A: 15 (3.0) n (%)

Q: What about the “Permanent treatment discontinuation due to non-SAEs” value (pre-discharge, N = 497) of the same compound?
A: 8 (1.6) n (%)

Q: And the “Serious adverse event: Acute kidney injury” value (pre-discharge, N = 497)?
A: 6(1.2) n (%)

Q: And the “Serious adverse event: Atrial fibrillation” value (pre-discharge, N = 497)?
A: 3 (0.6) n (%)

Q: And the “Serious adverse event: Cardiac failure(acute/chronic)” value (pre-discharge, N = 497)?
A: 35 (7.0) n (%)

Q: And the “Serious adverse event: Chronic obstructive pulmonary disease” value (pre-discharge, N = 497)?
A: 0 (0.0) n (%)

Q: And the “Serious adverse event: Hyperkalemia” value (pre-discharge, N = 497)?
A: 3 (0.6) n (%)

Q: And the “Serious adverse event: Hypotension” value (pre-discharge, N = 497)?
A: 4 (0.8) n (%)

Q: What about the “Serious adverse event: Non-cardiac chest pain” value (pre-discharge, N = 497) of the same compound?
A: 0 (0.0) n (%)

Q: What about the “Serious adverse event: Pneumonia” value (pre-discharge, N = 497) of the same compound?
A: 4 (0.8) n (%)

Q: What about the “Serious adverse event: Pulmonary edema” value (pre-discharge, N = 497) of the same compound?
A: 3 (0.6) n (%)

Q: What about the “Serious adverse event: Renal failure” value (pre-discharge, N = 497) of the same compound?
A: 3 (0.6) n (%)

Q: What about the “Serious adverse event: Respiratory tract infection” value (pre-discharge, N = 497) of the same compound?
A: 0 (0.0) n (%)

Q: And the “Serious adverse event: Ventricular tachycardia” value (pre-discharge, N = 497)?
A: 3 (0.6) n (%)

Q: And the “Temporary treatment interruption due to AEs” value (pre-discharge, N = 497)?
A: 70 (14.1) n (%)

Q: What about the “Temporary treatment interruption due to SAEs” value (pre-discharge, N = 497) of the same compound?
A: 21 (4.2) n (%)

Q: And the “Temporary treatment interruption due to non-SAEs” value (pre-discharge, N = 497)?
A: 54 (10.9) n (%)

Q: And the “Adverse event: Cardiac failure” value [4]?
A: 34 (6.8) n (%)

Q: And the “Adverse event: Diarrhea” value [4]?
A: 12 (2.4) n (%)

Q: And the “Adverse event: Dizziness” value [4]?
A: 28 (5.6) n (%)

Q: What about the “Adverse event: Hyperkalemia” value [4] of the same compound?
A: 55 (11.1) n (%)

Q: What about the “Adverse event: Hypotension” value [4] of the same compound?
A: 61(12.3) n (%)

Q: And the “Adverse event: Peripheral edema” value [4]?
A: 17 (3.4) n (%)

Q: And the “Adverse event: Renal impairment” value [4]?
A: 25 (5.0) n (%)

Q: What about the “Adverse event: Urinary tract infection” value [4] of the same compound?
A: 20 (4.0) n (%)

Q: What about the Deaths [5] of the same compound?
A: 13 (2.6) n (%)

Q: What about the “Patients with ≥ SAE / at least one SAE” value [5] of the same compound?
A: 94 (18.9) n (%)

Q: What about the “Patients with ≥1 AE” value [5] of the same compound?
A: 338 (68.0) n (%)

Q: And the “Permanent treatment discontinuation due to AEs” value (pre-discharge, N = 497, full analysis set)?
A: 22 (4.4) n (%)

Q: And the “AE of interest: Blood creatinine increased” value [6]?
A: 26 (3.7) n (%)

Q: And the “AE of interest: Cardiac failure” value [6]?
A: 58 (8.2) n (%)

Q: What about the “AE of interest: Hyperkalemia” value [6] of the same compound?
A: 85 (12.1) n (%)

Q: And the “AE of interest: Hypotension” value [6]?
A: 108 (10.9) n (%)

Q: And the “AE of interest: Renal failure” value [6]?
A: 16 (2.3) n (%)

Q: What about the “AE of interest: Renal impairment” value [6] of the same compound?
A: 32 (4.5) n (%)

Q: And the “At least one AE” value [6]?
A: 478 (67.8) n (%)

Q: And the “At least one serious AE” value [6]?
A: 130 (18.4) n (%)

Q: And the Death [6]?
A: 5 (0.7) n (%)

Q: And the “Treatment interruption due to AE” value [6]?
A: 87 (12.3) n (%)
